In patent publication US20240425480A1, “NOVEL PYRIDINE DERIVATIVE COMPOUND AS RON INHIBITOR” (LG CHEM, LTD., priority 2021, published 2024):
pIC50: −log10 of the molar value.

Tests used:
cMET = cMET (Homo sapiens, UniProt P08581); assay: Inhibitory activity against MET (cMET), TR-FRET kinase assay; type: biochemical; settings: TR-FRET enzyme assay
Description: In addition, in order to measure the enzyme activity inhibition for cMET, the evaluation was performed in the same manner as the enzyme activity inhibition measurement experiment for RON.
(§1) Specifically, the compound was prepared to a concentration of 1 mM in 100% DMSO and was diluted 10 times in a stepwise manner through 3-fold dilution. The compound (2 ul) diluted in a stepwise manner was added to a 96-well-plate containing 48 ul of a 1×kinase reaction buffer (50 mM HEPES (pH 7.4), 0.05% BSA, 0.005% Tween-20, 1 mM DTT, 0.5 mM MnCl2, 20 mM MgCl2).
The cMET protein was diluted to a concentration of 263 nM in a cMET storage buffer (50 mM Tris-HCl (pH 7.5), 150 mM NaCl, 0.05% Brij35, 1 mM DTT, 10% Glycerol), and then diluted again to a concentration of 2 nM in a 1×kinase reaction buffer. As a substrate cocktail, a MET-specific substrate mixed solution (5 uM TK peptide, 10 mM ATP) was prepared at a concentration 2 times the final reaction concentration.
(§2) Thereafter, a 384-well-plate was prepared, and 2.5 μl of each of the diluted compounds of Examples was added to a corresponding well of experimental group wells, and 2.5 μl of a 4% DMSO solution was dispensed into high control wells and low control wells.
(§3) Thereafter, 2.5 μL of 2 nM cMET was dispensed into each of the high control wells and the experimental group wells, and 2.5 μL of the 1× kinase reaction buffer was added to the low control wells, and all the wells were centrifuged at room temperature for 40 seconds at 1,000 RPM, and then incubated at room temperature for 20-30 minutes. Then, 5 μL of the substrate cocktail (2×) was dispensed into each well, and all the wells were centrifuged at room temperature for 40 seconds at 1,000 RPM, and then incubated at room temperature for 60 minutes. Thereafter, 5 μL of 90 mM EDTA was added to each well to terminate the reaction, and all the wells were then incubated again at room temperature for 5 minutes. Thereafter, 5 μL of a 4×phosphotyrosine antibody (Perkin Elmer) containing europium was added to each well, and all the wells were then incubated at room temperature for 60 minutes. After the incubation, the 384-well-plate was read with the Vison plate reader. In this case, the excitation wavelength was 340 nm, and the emission wavelength was 620 nm and 665 nm. The pe50 value of each compound of Examples was derived using the GraphPd Prism7 program.

RON = RON (Homo sapiens, UniProt Q04912); assay: Inhibitory activity against RON, TR-FRET kinase assay; type: biochemical; settings: TR-FRET enzyme assay
Sequence of RON (Q04912 25-1400, species assumed): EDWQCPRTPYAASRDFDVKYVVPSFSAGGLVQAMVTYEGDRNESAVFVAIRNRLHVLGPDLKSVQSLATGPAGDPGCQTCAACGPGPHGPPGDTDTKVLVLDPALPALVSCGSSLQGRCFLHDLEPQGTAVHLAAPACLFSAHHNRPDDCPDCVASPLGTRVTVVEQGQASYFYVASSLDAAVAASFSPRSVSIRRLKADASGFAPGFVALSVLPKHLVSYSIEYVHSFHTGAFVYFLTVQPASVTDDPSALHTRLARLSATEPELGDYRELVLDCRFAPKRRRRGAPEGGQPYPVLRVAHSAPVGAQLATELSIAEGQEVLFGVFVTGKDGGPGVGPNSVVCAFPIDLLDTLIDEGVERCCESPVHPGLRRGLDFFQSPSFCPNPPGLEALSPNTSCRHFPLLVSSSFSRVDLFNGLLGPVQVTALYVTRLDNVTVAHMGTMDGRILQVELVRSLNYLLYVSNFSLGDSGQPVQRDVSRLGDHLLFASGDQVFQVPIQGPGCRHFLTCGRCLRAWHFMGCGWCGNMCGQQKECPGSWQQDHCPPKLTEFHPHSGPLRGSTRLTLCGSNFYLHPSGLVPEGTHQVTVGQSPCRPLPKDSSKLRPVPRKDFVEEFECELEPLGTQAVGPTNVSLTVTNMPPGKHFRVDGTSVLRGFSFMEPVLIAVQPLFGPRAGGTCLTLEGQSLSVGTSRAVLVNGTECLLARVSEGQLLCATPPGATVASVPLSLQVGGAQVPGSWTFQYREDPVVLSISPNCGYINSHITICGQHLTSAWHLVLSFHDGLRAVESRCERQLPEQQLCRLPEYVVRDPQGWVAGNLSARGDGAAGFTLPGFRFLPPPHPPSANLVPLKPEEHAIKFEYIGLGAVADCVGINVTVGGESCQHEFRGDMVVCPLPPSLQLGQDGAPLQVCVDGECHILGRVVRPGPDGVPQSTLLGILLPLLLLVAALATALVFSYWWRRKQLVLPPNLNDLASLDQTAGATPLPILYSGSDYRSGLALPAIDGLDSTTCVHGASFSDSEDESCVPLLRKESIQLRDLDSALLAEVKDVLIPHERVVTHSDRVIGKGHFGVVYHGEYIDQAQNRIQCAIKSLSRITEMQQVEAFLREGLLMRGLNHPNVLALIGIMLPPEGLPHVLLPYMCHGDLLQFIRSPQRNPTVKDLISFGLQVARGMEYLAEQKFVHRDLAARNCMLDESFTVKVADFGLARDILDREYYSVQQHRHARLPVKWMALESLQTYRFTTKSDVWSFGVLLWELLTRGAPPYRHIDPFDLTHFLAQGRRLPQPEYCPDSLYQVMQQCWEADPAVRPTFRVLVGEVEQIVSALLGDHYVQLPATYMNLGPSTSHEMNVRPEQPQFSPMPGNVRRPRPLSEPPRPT
Description: In order to measure the inhibitory activity of each of the compounds of Examples against RON, the IC50 of each of the compounds was measured using Time-resolved fluorescence energy transfer (TR-FRET).
as §1, with “a 1× kinase” for “a 1×kinase”, “7.4), 0.01%” for “7.4), 0.05% BSA, 0.005%”, “Tween-20, 5” for “Tween-20, 1”, “mM Na3VO4, 2 mM EGTA, 10” for “mM MnCl2, 20”
The RON protein was diluted to a concentration of 49.3 nM in a RON storage buffer (50 mM Tris-HCl (pH 7.5), 150 mM NaCl, 0.5 mM EDTA, 0.02% Triton X-100), and then diluted again to a concentration of 0.4 nM in a 1×kinase reaction buffer. As a substrate cocktail, a RON-specific substrate mixed solution (40 uM ULight-labeled Poly GT, 100 nM ATP) was prepared at a concentration 2 times the final reaction concentration.
as §2
as §3, with “of 0.4” for “of 2”, “nM RON” for “nM cMET”, “of 30” for “of 90”, “The IC50” for “The pe50”

Sequence of cMET (P08581 25-1390): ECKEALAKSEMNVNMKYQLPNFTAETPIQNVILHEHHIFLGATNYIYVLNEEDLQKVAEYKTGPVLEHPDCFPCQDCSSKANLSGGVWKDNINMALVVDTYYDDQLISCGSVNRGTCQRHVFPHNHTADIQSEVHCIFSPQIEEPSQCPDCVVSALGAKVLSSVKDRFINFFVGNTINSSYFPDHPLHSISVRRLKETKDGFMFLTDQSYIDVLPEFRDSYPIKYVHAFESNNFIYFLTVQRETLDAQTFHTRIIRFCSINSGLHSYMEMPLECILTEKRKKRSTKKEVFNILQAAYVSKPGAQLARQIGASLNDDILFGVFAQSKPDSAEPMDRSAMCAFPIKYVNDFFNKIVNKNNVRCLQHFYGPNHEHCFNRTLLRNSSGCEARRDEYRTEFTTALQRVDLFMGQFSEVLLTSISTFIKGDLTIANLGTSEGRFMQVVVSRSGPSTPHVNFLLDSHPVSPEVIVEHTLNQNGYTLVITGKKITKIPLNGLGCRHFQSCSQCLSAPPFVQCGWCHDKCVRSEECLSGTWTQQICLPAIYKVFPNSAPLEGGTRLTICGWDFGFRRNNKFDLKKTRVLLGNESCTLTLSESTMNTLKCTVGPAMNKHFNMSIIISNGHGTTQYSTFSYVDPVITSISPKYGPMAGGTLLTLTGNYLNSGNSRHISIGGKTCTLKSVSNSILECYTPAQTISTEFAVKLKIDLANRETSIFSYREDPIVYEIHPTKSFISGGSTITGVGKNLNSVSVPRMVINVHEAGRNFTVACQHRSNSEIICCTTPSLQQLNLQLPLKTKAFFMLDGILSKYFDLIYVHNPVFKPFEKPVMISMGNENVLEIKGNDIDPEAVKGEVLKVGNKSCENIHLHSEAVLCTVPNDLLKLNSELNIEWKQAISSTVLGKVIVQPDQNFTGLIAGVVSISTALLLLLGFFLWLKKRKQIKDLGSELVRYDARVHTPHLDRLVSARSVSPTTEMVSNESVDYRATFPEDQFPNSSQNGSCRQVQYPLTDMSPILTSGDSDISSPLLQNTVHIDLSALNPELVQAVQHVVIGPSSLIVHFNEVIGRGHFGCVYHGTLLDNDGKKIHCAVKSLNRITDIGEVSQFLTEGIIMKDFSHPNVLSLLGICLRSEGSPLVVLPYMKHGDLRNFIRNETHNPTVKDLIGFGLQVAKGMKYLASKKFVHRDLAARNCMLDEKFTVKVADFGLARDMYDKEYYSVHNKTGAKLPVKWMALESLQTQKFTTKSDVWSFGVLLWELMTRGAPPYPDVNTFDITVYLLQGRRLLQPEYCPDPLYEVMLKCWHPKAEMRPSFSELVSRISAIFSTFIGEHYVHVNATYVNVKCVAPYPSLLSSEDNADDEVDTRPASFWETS

| pIC50 (cMET) | pIC50 (RON) | SMILES |
| --- | --- | --- |
| 5.30 to 6.30 | 6.30 to 7.30 | CCc1c(C(=O)Nc2ccc(Oc3ccnc(N)c3Cl)c(F)c2)cnn1-c1cncnc1 [Example 1, N-(4-((2-amino-3-chloropyridin-4-yl)oxy)-3-fluorophenyl)-5-ethyl-1-(pyrimidin-5-yl)-1H-pyrazole-4-carboxamide] |
| 5.30 to 6.30 | > 7.30 | Nc1nccc(Oc2ccc(NC(=O)c3cnn(-c4ccccn4)c3C(F)(F)F)cc2F)c1Cl [Example 2, N-(4-((2-amino-3-chloropyridin-4-yl)oxy)-3-fluorophenyl)-1-(pyridin-2-yl)-5-(trifluoromethyl)-1H-pyrazole-4-carboxamide] |
| < 5.30 | < 5.30 | Nc1nccc(Oc2ccc(NC(=O)c3cnn(-c4nc(-c5ccccc5)cs4)c3C(F)(F)F)cc2F)c1Cl [Example 3, N-(4-((2-amino-3-chloropyridin-4-yl)oxy)-3-fluorophenyl)-1-(4-phenylthiazol-2-yl)-5-(trifluoromethyl)-1H-pyrazole-4-carboxamide] |
| < 5.30 | 5.30 to 6.30 | CCc1c(C(=O)Nc2ccc(Oc3ccnc(N)c3Cl)c(F)c2)cnn1-c1ccncc1 [Example 4, N-(4-((2-amino-3-chloropyridin-4-yl)oxy)-3-fluorophenyl)-5-ethyl-1-(pyridin-4-yl)-1H-pyrazole-4-carboxamide] |
| 5.30 to 6.30 | 6.30 to 7.30 | CCc1c(C(=O)Nc2ccc(Oc3ccnc(N)c3Cl)c(F)c2)cnn1-c1cccnc1 [Example 5, N-(4-((2-amino-3-chloropyridin-4-yl)oxy)-3-fluorophenyl)-5-ethyl-1-(pyridin-3-yl)-1H-pyrazole-4-carboxamide] |
| < 5.30 | 6.30 to 7.30 | Nc1nccc(Oc2ccc(NC(=O)c3cnn(-c4cncnc4)c3C(F)(F)F)cc2F)c1Cl [Example 6, N-(4-((2-amino-3-chloropyridin-4-yl)oxy)-3-fluorophenyl)-1-(pyrimidin-5-yl)-5-(trifluoromethyl)-1H-pyrazole-4-carboxamide] |
| < 5.30 | 6.30 to 7.30 | Cc1c(C(=O)Nc2ccc(Oc3ccnc(N)c3Cl)c(F)c2)cnn1-c1cncnc1 [Example 7, N-(4-((2-amino-3-chloropyridin-4-yl)oxy)-3-fluorophenyl)-5-methyl-1-(pyrimidin-5-yl)-1H-pyrazole-4-carboxamide] |
| 5.30 to 6.30 | > 7.30 | Nc1nccc(Oc2ccc(NC(=O)c3cnn(-c4ncccc4F)c3C(F)(F)F)cc2F)c1Cl [Example 8, N-(4-((2-amino-3-chloropyridin-4-yl)oxy)-3-fluorophenyl)-1-(3-fluoropyridin-2-yl)-5-(trifluoromethyl)-1H-pyrazole-4-carboxamide] |
| 5.30 to 6.30 | > 7.30 | Cc1cccnc1-n1ncc(C(=O)Nc2ccc(Oc3ccnc(N)c3Cl)c(F)c2)c1C(F)(F)F [Example 9, N-(4-((2-amino-3-chloropyridin-4-yl)oxy)-3-fluorophenyl)-1-(3-methylpyridin-2-yl)-5-(trifluoromethyl)-1H-pyrazole-4-carboxamide] |
| 5.30 to 6.30 | > 7.30 | Nc1nccc(Oc2ccc(NC(=O)c3cnn(-c4ncccc4Cl)c3C(F)(F)F)cc2F)c1Cl [Example 10, N-(4-((2-amino-3-chloropyridin-4-yl)oxy)-3-fluorophenyl)-1-(3-chloropyridin-2-yl)-5-(trifluoromethyl)-1H-pyrazole-4-carboxamide] |
| 5.30 to 6.30 | 6.30 to 7.30 | Nc1nccc(Oc2ccc(NC(=O)c3cnn(-c4ncccc4C(F)(F)F)c3C(F)(F)F)cc2F)c1Cl [Example 11, N-(4-((2-amino-3-chloropyridin-4-yl)oxy)-3-fluorophenyl)-5-(trifluoromethyl)-1-(3-(trifluoromethyl)pyridin-2-yl)-1H-pyrazole-4-carboxamide] |
| 5.30 to 6.30 | 6.30 to 7.30 | Cc1ccnc(-n2ncc(C(=O)Nc3ccc(Oc4ccnc(N)c4Cl)c(F)c3)c2C(F)(F)F)c1 [Example 12, N-(4-((2-amino-3-chloropyridin-4-yl)oxy)-3-fluorophenyl)-1-(4-methylpyridin-2-yl)-5-(trifluoromethyl)-1H-pyrazole-4-carboxamide] |
| < 5.30 | 6.30 to 7.30 | Nc1nccc(Oc2ccc(NC(=O)c3cnn(-c4ccc(F)cn4)c3C(F)(F)F)cc2F)c1Cl [Example 13, N-(4-((2-amino-3-chloropyridin-4-yl)oxy)-3-fluorophenyl)-1-(5-fluoropyridin-2-yl)-5-(trifluoromethyl)-1H-pyrazole-4-carboxamide] |
| < 5.30 | 6.30 to 7.30 | Nc1nccc(Oc2ccc(NC(=O)c3cnn(-c4cc(Cl)ccn4)c3C(F)(F)F)cc2F)c1Cl [Example 14, N-(4-((2-amino-3-chloropyridin-4-yl)oxy)-3-fluorophenyl)-1-(4-chloropyridin-2-yl)-5-(trifluoromethyl)-1H-pyrazole-4-carboxamide] |
| 5.30 to 6.30 | 6.30 to 7.30 | COc1cccnc1-n1ncc(C(=O)Nc2ccc(Oc3ccnc(N)c3Cl)c(F)c2)c1C(F)(F)F [Example 15, N-(4-((2-amino-3-chloropyridin-4-yl)oxy)-3-fluorophenyl)-1-(3-methoxypyridin-2-yl)-5-(trifluoromethyl)-1H-pyrazole-4-carboxamide] |
| < 5.30 | 6.30 to 7.30 | Cc1ccc(-n2ncc(C(=O)Nc3ccc(Oc4ccnc(N)c4Cl)c(F)c3)c2C(F)(F)F)nc1 [Example 16, N-(4-((2-amino-3-chloropyridin-4-yl)oxy)-3-fluorophenyl)-1-(5-methylpyridin-2-yl)-5-(trifluoromethyl)-1H-pyrazole-4-carboxamide] |
| 5.30 to 6.30 | 6.30 to 7.30 | Cc1cccc(-n2ncc(C(=O)Nc3ccc(Oc4ccnc(N)c4Cl)c(F)c3)c2C(F)(F)F)n1 [Example 17, N-(4-((2-amino-3-chloropyridin-4-yl)oxy)-3-fluorophenyl)-1-(6-methylpyridin-2-yl)-5-(trifluoromethyl)-1H-pyrazole-4-carboxamide] |
| 5.30 to 6.30 | 6.30 to 7.30 | Nc1nccc(Oc2ccc(NC(=O)c3cnn(-c4cccnc4)c3C(F)(F)F)cc2F)c1Cl [Example 18, N-(4-((2-amino-3-chloropyridin-4-yl)oxy)-3-fluorophenyl)-1-(pyridin-3-yl)-5-(trifluoromethyl)-1H-pyrazole-4-carboxamide] |
| 5.30 to 6.30 | 6.30 to 7.30 | Nc1nccc(Oc2ccc(NC(=O)c3cnn(-c4ccncc4)c3C(F)(F)F)cc2F)c1Cl [Example 19, N-(4-((2-amino-3-chloropyridin-4-yl)oxy)-3-fluorophenyl)-1-(pyridin-4-yl)-5-(trifluoromethyl)-1H-pyrazole-4-carboxamide] |
| 5.30 to 6.30 | > 7.30 | Nc1nccc(Oc2ccc(NC(=O)c3cnn(-c4cccnn4)c3C(F)(F)F)cc2F)c1Cl [Example 20, N-(4-((2-amino-3-chloropyridin-4-yl)oxy)-3-fluorophenyl)-1-(pyridazin-3-yl)-5-(trifluoromethyl)-1H-pyrazole-4-carboxamide] |
